# Experimental data published in article PMC3716607, “Inhibition of Histo-blood Group Antigen Binding as a Novel Strategy to Block Norovirus Infections” (PLoS ONE, 2013).
# Read-outs that look alike come from different tables or passages of the source.
# Tests used:
# [1] = target: VA387 P dimers binding to type A and B saliva HBGAs (Norovirus GII.4 (Human calicivirus NLV/VA98387/1998), UniProt Q913Z3); experiment: biochemical; set-up: species or system GII.4 NoV (VA387)
# Description: Saliva-based NoV-HBGA binding assays were performed as described previously using P dimers of VA387 (GII.4) as NoV surrogates and saliva samples and/or synthetic oligosaccharides as HBGA sources, [34], [35]. Briefly, synthetic oligosaccharides and/or boiled saliva samples with defined HBGAs phenotype were coated on 96-well microtiter plates, after blocking with nonfat milk, P dimer of VA387 were added. The bound P dimer was detected using a guinea pig antiserum against NoVs VLPs, followed by the addition of horseradish peroxidase (HRP)-conjugated goat anti-guinea pig IgG. The bound HRP conjugates were colorized by the TMB kit (Kirkegaard & Perry Laboratories), which was read an EIA spectrum reader (Tecan). The synthetic oligosaccharide-PAA conjugates (2 µg/ml, GlycoTech Corporation, Rockville, MD) were captured to a microtiter plate through coated streptavidin (5 µg/ml).
# Blocking effects of the hit compounds were measured by a pre-incubation of the P dimers with the compounds at given concentrations for 30 min before the P dimers were added to the coated saliva samples or HBGA oligosaccharides in a binding assay. The blocking activity of a compound was defined as its concentration yielding 50% inhibition (IC50) in the binding assay. IC50 calculation was performed using Probit regression analysis and correlation analysis between IC50 and Ki values was performed with nonparametric Spearman’s r (two-tailed) by using SPSS statistical software version 13.0 (SPSS, Chicago, IL).
# [2] = MTS cytotoxicity assay; format: cell-based, human (HeLa); rhesus monkey (LLC-MK2)
# Description: This assay was performed using CellTiter 96 aqueous nonradioactive cell proliferation kits (Promega, Madison, WI) as described elsewhere. Briefly, HeLa and LLC-MK2 cells were seeded at 5×10^4 cells/ml onto a 96-well plate overnight. After an incubation with each compound at various concentrations for 3 days (the compound was added one time at the beginning of the incubation), the culture medium was replaced with fresh one with 100 µl of MTS-phenazine methosulfate/well. After a further incubation at 37°C for 2 h, the color products of MTS were measured with a plate reader at 490 nm. The cytotoxicities of individual compounds were indicated by the decrease in cellular reduction of MTS into the colored product. The 50% cytotoxic concentrations (CC50 s) were determined as the concentrations of the compounds that caused 50% inhibition of cell growth compared with that of control cells without a compound.
# [3] = IC50 Saliva A, blocking assay, type A saliva, mean ± standard deviation
# [4] = IC50 Saliva B, blocking assay, type B saliva, mean ± standard deviation
# [5] = Activity (IC50), against binding of VA387 to the A and B saliva
# [6] = 3 days incubation, HeLa and LLC-MK2 cells, cell line not given, read-out: CC50
# Chain of VA387 P dimers binding to type A and B saliva HBGAs (Q913Z3 entry or part of it): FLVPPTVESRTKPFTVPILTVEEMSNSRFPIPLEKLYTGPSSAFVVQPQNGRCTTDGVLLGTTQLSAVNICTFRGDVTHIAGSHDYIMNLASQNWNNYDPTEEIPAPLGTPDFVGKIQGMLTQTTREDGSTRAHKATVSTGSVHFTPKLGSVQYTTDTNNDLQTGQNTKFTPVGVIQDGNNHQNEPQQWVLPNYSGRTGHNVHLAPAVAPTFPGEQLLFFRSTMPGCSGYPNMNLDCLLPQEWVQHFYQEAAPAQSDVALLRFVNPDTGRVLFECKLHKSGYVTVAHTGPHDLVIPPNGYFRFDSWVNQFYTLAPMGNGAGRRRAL
Compound,"IC50 [1, 3] [µM]","IC50 [1, 4] [µM]","IC50 [1, 5] [µM]",also measured
CC1(C)CC(=O)C2=C(C1)c1c(ccc3ccccc13)NC2 [ZINC00128665],14.1 ± 0.53,14.9 ± 0.71,–,–
CC12CCC(=NOCC(=O)NCC(=O)O)C=C1CCC1C2CCC2(C)C(O)CCC12 (centres unmarked) [ZINC04084183],–,–,10 to 20,–
CC12CCC3C(CCC4CC(=O)CCC43C)C1CCC2O (centres unmarked) [ZINC03814360],36.9 ± 1.47,35.7 ± 1.06,–,–
C[C@]12CCC3C(CC[C@H]4CC=CC[C@]34C)C1CC/C2=N/NC(N)=S (some centres unmarked) [ZINC04026813],8.7 ± 1.03,8.97 ± 0.63,1 to 10,CC50 at 3 days [2]: 212 µM
CC(=O)OCC(=O)C1CCC2C3CC=C4CC(O)CCC4(C)C3CCC12C (centres unmarked) [ZINC00652738],30.9 ± 1.04,30.1 ± 1.35,–,–
C/C(=N/O)C1=CCC2C3CC[C@H]4C/C(=N\O)CC[C@]4(C)C3CC[C@]12C (some centres unmarked) [ZINC04041115],2.38 ± 0.15,2.54 ± 0.21,1 to 10,CC50 at 3 days [2]: 203 µM
O=C(O)c1ccc(C2Nc3c(F)cccc3C3C=CCC32)cc1 (centres unmarked) [ZINC04298453],38 ± 2.01,39.4 ± 1.53,–,–
CC(=O)C1=CCC2C3CC=C4CC(O)CCC4(C)C3CCC12C (centres unmarked) [ZINC00968234],–,–,20 to 40,–
O=C1CC(c2ccc([N+](=O)[O-])cc2)c2ccc3ccccc3c2N1 (centres unmarked) [ZINC00124088],24.5 ± 0.98,26.3 ± 1.24,–,–
CC(=O)C1CCC2C3CCC4CC(O)CCC4(C)C3CCC12C (centres unmarked) [ZINC05260830],–,–,1 to 10,"CC50 at 3 days [2, 6]: 267 µM"
CC12CCC(O)C=C1CCC1C2CCC2(C)C1CCC21CCC(=O)O1 (centres unmarked) [ZINC04081424],–,–,20 to 40,–
COc1cc([N+](=O)[O-])cc2c1NC(c1ccccn1)C1CC=CC21 (centres unmarked) [ZINC04450155],24.2 ± 0.74,24.3 ± 0.87,20 to 40,–
Cc1ccc(C2CC(=O)Nc3c2ccc2ccccc32)cc1[N+](=O)[O-] (centres unmarked) [ZINC00181174],33.5 ± 0.68,33.7 ± 1.27,–,–
CC1CCc2c(sc3ncn(C(C)C(=O)N/N=C/c4c(O)ccc5ccccc45)c(=O)c23)C1 (centres unmarked) [ZINC06166484],–,–,–,"IC50 ([1]; read-out: IC50 Saliva A, blocking assay, type A saliva, mean ± standard deviation): 17 ± 1.06 µM; IC50 ([1]; read-out: IC50 Saliva B, blocking assay, type B saliva, mean ± standard deviation): 16.8 ± 0.87 µM"
Cc1noc2c1C1(C)CCC3C(CC=C4CC(O)CCC43C)C1C2 (centres unmarked) [ZINC04014899],33.9 ± 1.67,34.5 ± 1.93,–,–
Nc1ccc2c(c1)C1C=CCC1C(c1ccc([N+](=O)[O-])cc1)N2 (centres unmarked) [ZINC04095376],12.6 ± 0.87,12.8 ± 0.64,–,–
CC(CCC(=O)O)C1CCC2C3CC=C4CC(O)CCC4(C)C3CCC12C (centres unmarked) [ZINC04831336],7.63 ± 0.27,7.65 ± 0.33,1 to 10,"CC50 at 3 days [2, 6]: 225 µM"
C[C@]12CC[C@H](O)C[C@@H]1CC[C@@H]1[C@@H]2CC[C@@]2(C)[C@H]1CC[C@]2(C)O [ZINC05223451],3.37 ± 0.13,3.39 ± 0.24,1 to 10,"CC50 at 3 days [2, 6]: 171 µM"
O=[N+]([O-])c1ccc2c(c1)C1C=CCC1C(C1CC=CCC1)N2 (centres unmarked) [ZINC04725822],13.2 ± 1.04,13.1 ± 0.87,–,–
